From ChEMBL document CHEMBL4145503, “Design, synthesis and in vitro biological evaluation of novel [1,2,3]triazolo[4,5-d]pyrimidine derivatives containing a thiosemicarbazide moiety” (Eur J Med Chem, 2018)

Tests used:
Assay type in all cases: functional, cell-based
[1] = test system: MGC-803; assay: Antiproliferative activity against human MGC803 cells after 72 hrs by MTT assay; settings: MGC-803, 72 h
[2] = test system: PC-3; assay: Antiproliferative activity against human PC3 cells after 72 hrs by MTT assay; settings: PC-3, 72 h
[3] = test system: NCI-H1650; assay: Antiproliferative activity against human NCI-H1650 cells after 72 hrs by MTT assay; settings: NCI-H1650, 72 h

In the case of CCCSc1nc(NNC(=S)NCc2ccccc2)c2nnn(CCc3cccs3)c2n1, the IC50 [1] is reported as 41.1 µM, the IC50 [2] is reported as > 64 µM and the IC50 [3] is reported as > 64 µM.

CCCSc1nc(NNC(=S)NCc2ccccc2)c2nnn(CCc3c[nH]c4ccccc34)c2n1 was tested, and the IC50 [1] was 30.3 µM, the IC50 [2] was 15.3 µM and the IC50 [3] was > 64 µM.

In the case of O=c1[nH]cc(F)c(=O)[nH]1 [FLUOROURACIL], the IC50 [1] is reported as 7.86 µM, the IC50 [2] is reported as 27.6 µM and the IC50 [3] is reported as 14.6 µM.
